In brackets after ≈: the same amount, converted by molar mass. Where two headings read alike, the source gives them in different places.
Legend:
[1] = system: uropathogens, including Escherichia coli; details: cited from earlier work
[2] = system: E. coli TOP10-3 (GyrA^P35L, ParC^D79N); assay: MIC, antibacterial susceptibility (CLSI); assay type: cell-based; details: Escherichia coli
[3] = system: E. coli TOP10 (GyrA^WT, ParC^WT); assay: microbe, parasite or virus in culture; assay type: cell-based; details: Escherichia coli

In the case of O=c1ccc2ncc(=O)n3c2n1C[C@H]3CN1CCC(NCc2cc3c(cn2)OCCC3)CC1 [gepotidacin], the “clinical efficacy versus nitrofurantoin” value ([1]; EAGLE-3 phase III trial) is listed as “demonstrated statistically significant superiority versus nitrofurantoin”, the “clinical efficacy versus nitrofurantoin” value ([1]; phase III trials, patients with confirmed uncomplicated urinary tract infection and uropathogen susceptible to nitrofurantoin) is listed as “demonstrated noninferiority to nitrofurantoin” and the MIC [2] is listed as 16 µg/mL (≈ 35.7 µM). The MIC [3] was 0.125 µg/mL (≈ 0.279 µM).

Source: paper PMC11015057 (ACS Infectious Diseases, 2024)
